Test results from BindingDB's records for doi:10.1016/j.bmcl.2017.09.009 (St. John'S University, 2017).
Values joined by “and” are separate entries in the source; they are usually repeats but may differ in a detail not shown here. Equal entries are not always repeated. One block for each molecule: values may come before it.

Experiments:
[1] = Inhibition of ABCG2 in human H460/MX20 cells assessed as potentiation of mitoxantrone induced antiproliferative activity by measuring mitoxantrone IC50 at 10 uM preincubated for 2 hrs followed by mitoxantrone addition measured after 72 hrs by MTT assay (Rvb = 6.161 +/- 0.172 microM)
[2] = Inhibition of ABCG2 in human H460/MX20 cells assessed as potentiation of mitoxantrone induced antiproliferative activity by measuring mitoxantrone IC50 at 3 uM preincubated for 2 hrs followed by mitoxantrone addition measured after 72 hrs by MTT assay (Rvb = 6.161 +/- 0.172 microM)
[3] = Inhibition of ABCG2 in human H460/MX20 cells assessed as potentiation of mitoxantrone induced antiproliferative activity by measuring mitoxantrone IC50 at 1 uM preincubated for 2 hrs followed by mitoxantrone addition measured after 72 hrs by MTT assay (Rvb = 6.161 +/- 0.172 microM)
[4] = target: T1, Broad substrate specificity ATP-binding cassette transporter ABCG2 (Homo sapiens, UniProt Q9UNQ0); assay: (§1) Inhibition of ABCG2 in human H460/MX20 cells assessed as potentiation of mitoxantrone induced antiproliferative activity by measuring mitoxantrone IC50 at 10 uM preincubated for 2 hrs followed by mitoxantrone addition measured after 72 hrs by MTT assay (Rvb = 6.161 +/- 0.172 microM)
T1 sequence (Q9UNQ0 whole entry): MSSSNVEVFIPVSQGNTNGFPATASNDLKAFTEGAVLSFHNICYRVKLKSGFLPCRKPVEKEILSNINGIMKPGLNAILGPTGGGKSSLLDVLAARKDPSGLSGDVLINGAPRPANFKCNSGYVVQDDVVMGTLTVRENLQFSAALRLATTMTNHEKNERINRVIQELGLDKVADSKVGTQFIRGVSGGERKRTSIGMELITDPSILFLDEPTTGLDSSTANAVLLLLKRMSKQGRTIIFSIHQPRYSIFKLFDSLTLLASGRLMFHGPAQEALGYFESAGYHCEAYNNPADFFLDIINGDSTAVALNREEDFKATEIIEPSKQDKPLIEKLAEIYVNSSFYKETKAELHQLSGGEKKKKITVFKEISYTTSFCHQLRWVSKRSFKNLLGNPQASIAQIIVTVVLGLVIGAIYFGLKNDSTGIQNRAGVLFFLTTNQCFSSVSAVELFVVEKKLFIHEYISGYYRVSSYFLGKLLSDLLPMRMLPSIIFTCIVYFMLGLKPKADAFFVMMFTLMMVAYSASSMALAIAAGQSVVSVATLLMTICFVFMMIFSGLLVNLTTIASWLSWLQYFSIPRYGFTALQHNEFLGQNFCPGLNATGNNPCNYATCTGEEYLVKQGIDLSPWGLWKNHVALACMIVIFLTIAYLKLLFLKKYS

[5] = target: T1, Broad substrate specificity ATP-binding cassette transporter ABCG2; assay: Inhibition of ABCG2 in human H460/MX20 cells assessed as potentiation of mitoxantrone induced antiproliferative activity by measuring mitoxantrone IC50 at 3 uM preincubated for 2 hrs followed by mitoxantrone addition measured after 72 hrs by MTT assay (Rvb = 6.161 +/- 0.172 microM)
[6] = Inhibition of ABCG2 in human H460/MX20 cells assessed as potentiation of mitoxantrone induced antiproliferative activity by measuring mitoxantrone IC50 at 3 uM preincubated for 2 hrs followed by mitoxantrone addition measured after 72 hrs by MTT assay (Rvb = 6.161 +/- 0.172 microM); remark: listed apart in the source
[7] = target: T1, Broad substrate specificity ATP-binding cassette transporter ABCG2; assay: ChEBML_1696291
Protocol: as §1

SMILES: CCCc1ccc(NC(=O)c2ccccc2NC(=O)c2ccc(OC)cc2)cc1
IC50 [1]: 1660 nM

SMILES: COc1cccc(-n2nnc(-c3ccccc3NC(=O)Nc3ccc(N=C=S)cc3)n2)c1
IC50 [2]: 667 nM

SMILES: CCCc1ccc(NC(=O)c2ccccc2NC(=O)Nc2cccc([N+](=O)[O-])c2)cc1
IC50 [3]: 651 nM

SMILES: CCCc1ccc(NC(=O)c2ccccc2NC(=O)Nc2ccc([N+](=O)[O-])cc2)cc1
IC50 [2]: 482 nM
IC50 [3]: 622 nM

SMILES: CCCc1ccc(NC(=O)c2ccccc2NC(=O)c2ccc([N+](=O)[O-])cc2)cc1
IC50 [2]: 783 nM
IC50 [4]: 594 nM
IC50 [3]: 833 nM

SMILES: COc1cccc(-n2nnc(-c3ccccc3NC(=O)c3cccc([N+](=O)[O-])c3)n2)c1
IC50 [3]: 1800 nM

SMILES: COc1cccc(-n2nnc(-c3ccccc3NC(=O)Nc3ccc(NC(C)=O)cc3)n2)c1
IC50 [1]: 325 nM

SMILES: CCCc1ccc(NC(=O)c2ccccc2NC(=O)Nc2ccc(OC)cc2)cc1
IC50 [4]: 985 nM
IC50 [3]: 3370 nM

SMILES: COc1cccc(-n2nnc(-c3ccccc3NC(=O)c3ccc([N+](=O)[O-])cc3)n2)c1
IC50 [3]: 585 nM

SMILES: COc1cccc(-n2nnc(-c3ccccc3NC(=O)c3ccc(N=C=S)cc3)n2)c1
IC50 [2]: 1050 nM and 952 nM

SMILES: COc1cccc(-n2nnc(-c3ccccc3NC(=O)Nc3ccc([N+](=O)[O-])cc3)n2)c1
IC50 [1]: 403 nM

SMILES: COc1cccc(-n2nnc(-c3ccccc3NC(=O)Nc3ccc(NC(=O)CBr)cc3)n2)c1
IC50 [4]: 472 nM
IC50 [3]: 798 nM

SMILES: COc1cccc(-n2nnc(-c3ccccc3NC(=O)c3ccccc3[N+](=O)[O-])n2)c1
IC50 [4]: 1100 nM

SMILES: CCCc1ccc(C(=O)Nc2ccccc2-c2nnn(-c3cccc(OC)c3)n2)cc1
IC50 [1]: 131 nM

SMILES: CCCc1ccc(NC(=O)c2ccccc2NC(=O)Nc2ccc(Br)cc2)cc1
IC50 [5]: 2120 nM
IC50 [3]: 2660 nM

SMILES: COc1cccc(-n2nnc(-c3ccccc3NC(=O)c3ccc(N)cc3)n2)c1
IC50 [1]: 299 nM
IC50 [5]: 491 nM

SMILES: COc1ccc(C(=O)Nc2ccccc2-c2nnn(-c3ccc(OC)cc3)n2)cc1
IC50 [1]: 492 nM
IC50 [2]: 505 nM
IC50 [3]: 746 nM

SMILES: CCCc1ccc(NC(=O)c2ccccc2NC(=O)Nc2ccccc2[N+](=O)[O-])cc1
IC50 [2]: 2560 nM
IC50 [4]: 1120 nM

SMILES: COc1ccc(-n2nnc(-c3ccccc3NC(=O)Nc3ccc([N+](=O)[O-])cc3)n2)cc1
IC50 [2]: 541 nM
IC50 [4]: 331 nM

SMILES: COc1cccc(-n2nnc(-c3ccccc3NC(=O)Nc3ccccc3[N+](=O)[O-])n2)c1
IC50 [1]: 882 nM
IC50 [2]: 978 nM

SMILES: COc1cccc(-n2nnc(-c3ccccc3NC(=O)Nc3ccc(N)cc3)n2)c1
IC50 [1]: 379 nM
IC50 [3]: 838 nM

SMILES: COc1cccc(-n2nnc(-c3ccccc3NC(=O)c3ccc(NC(=O)CBr)cc3)n2)c1
IC50 [1]: 283 nM
IC50 [5]: 446 nM

SMILES: COc1ccc2c3c([nH]c2c1)[C@H](C=C(C)C)N1C(=O)[C@@H]2CCCN2C(=O)[C@@H]1C3 [Fumitremorgin C]
IC50 [2]: 451 nM
IC50 [3]: 612 nM

SMILES: COc1cccc(-n2nnc(-c3ccccc3NC(=O)c3ccc(N=[N+]=[N-])cc3)n2)c1
IC50 [2]: 1500 nM
IC50 [3]: 1620 nM

SMILES: COc1cccc(-n2nnc(-c3ccccc3NC(=O)Nc3ccc(N=[N+]=[N-])cc3)n2)c1
IC50 [3]: 913 nM

SMILES: COc1ccc(-n2nnc(-c3ccccc3NC(=O)c3ccc([N+](=O)[O-])cc3)n2)cc1
IC50 [1]: 378 nM
IC50 [6]: 535 nM
IC50 [3]: 587 nM

IC50 [7]: 711 nM
SMILES: O=C(Nc1ccc([N+](=O)[O-])cc1)Nc1ccccc1C(=O)Nc1ccc(C(F)(F)F)cc1
IC50 [1]: 452 nM

SMILES: COc1cccc(-n2nnc(-c3ccccc3NC(=O)c3ccc(NC(C)=O)cc3)n2)c1
IC50 [1]: 1200 nM
IC50 [6]: 1320 nM
IC50 [3]: 1360 nM
